Consider 25 compounds from ChEMBL document CHEMBL5550211 (J Med Chem, 2024).

A short description of data set [1]: Apparent permeability across apical to basolateral side in LLC-PK1 cells. The format is ADME, cell-based, Sus scrofa. The note with it: pig.
Data set [2] in a line: Substrate activity at BCRP in LLC-PK1 cells assessed as efflux ratio of apparent permeability from basolateral to apical side over apical to basolateral side. The format is ADME, cell-based, Sus scrofa. The note with it: pig.
Data set [3] can be described thus: Substrate activity at P-gp in LLC-PK1 cells assessed as efflux ratio of apparent permeability from basolateral to apical side over apical to basolateral side. It is filed as ADME, cell-based, Sus scrofa. The note with it: pig.
Data set [4] deals with T1, Serine/threonine-protein kinase B-raf (Homo sapiens, UniProt P15056, V600E). Kind of data set: Inhibition of BRAF V600E mutant in human A-375 cells assessed as reduction in ERK phosphorylation. It is filed as cell-based.
Data set [5] addresses T1, Serine/threonine-protein kinase B-raf. In words: Inhibition of 6-His tagged BRAF V600E mutant (445 to 723 residues) (unknown origin).
A short description of data set [6]: Dissociation constant, pKa of the compound. It is filed as physicochemical.

Structures are written as SMILES.

T1 sequence (P15056 2-766 V600E limits assumed): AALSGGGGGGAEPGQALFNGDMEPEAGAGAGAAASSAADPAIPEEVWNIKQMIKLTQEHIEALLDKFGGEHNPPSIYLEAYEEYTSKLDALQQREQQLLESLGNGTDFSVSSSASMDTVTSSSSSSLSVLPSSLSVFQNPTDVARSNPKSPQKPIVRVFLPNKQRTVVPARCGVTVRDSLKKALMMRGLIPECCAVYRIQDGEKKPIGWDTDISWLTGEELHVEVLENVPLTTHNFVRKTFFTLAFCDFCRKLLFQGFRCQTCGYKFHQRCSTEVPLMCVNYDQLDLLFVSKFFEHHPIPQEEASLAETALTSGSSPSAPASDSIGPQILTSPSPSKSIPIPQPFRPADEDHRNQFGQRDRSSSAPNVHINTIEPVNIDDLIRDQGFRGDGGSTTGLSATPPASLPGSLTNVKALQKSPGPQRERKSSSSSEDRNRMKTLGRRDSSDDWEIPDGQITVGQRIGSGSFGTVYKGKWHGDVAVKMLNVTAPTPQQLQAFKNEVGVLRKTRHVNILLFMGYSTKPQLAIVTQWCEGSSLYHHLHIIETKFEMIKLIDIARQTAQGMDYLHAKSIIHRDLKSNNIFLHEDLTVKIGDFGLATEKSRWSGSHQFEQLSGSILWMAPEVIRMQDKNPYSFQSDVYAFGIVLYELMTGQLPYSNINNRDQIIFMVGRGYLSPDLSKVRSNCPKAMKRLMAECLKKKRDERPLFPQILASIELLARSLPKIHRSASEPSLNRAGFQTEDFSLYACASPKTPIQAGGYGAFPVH

Regarding `CCCS(=O)(=O)Nc1ccc(F)c(N(C)c2ccc3ncn(C)c(=O)c3c2)c1Cl`, the Papp A→B in data set [1] was found to be 28 ×10⁻⁶ cm/s. Besides, the Ratio was 1.3 in data set [2] and 3.6 in data set [3]. Also, the results for the IC50 in data set [4] and in data set [5] were 177 nM and 54.9 nM, respectively.

With `CCCS(=O)(=O)Nc1ccc(Cl)c(Nc2ccc3ncn(C)c(=O)c3c2)c1F`, the Papp A→B in data set [1] was 48 ×10⁻⁶ cm/s. The values for the Ratio in data set [2] and in data set [3] were 18.9 and 7.1, respectively. Besides, the IC50 in data set [4] came out at 142 nM; in data set [5], 60.3 nM.

Take `Cc1c(Nc2c(F)ccc(NS(=O)(=O)C3CC3)c2Cl)ccc2ncn(C)c(=O)c12`: the Papp A→B in data set [1] was 22 ×10⁻⁶ cm/s.

Consider `Cc1c(Nc2c(F)ccc(NS(=O)(=O)CC(C)C)c2Cl)ccc2ncn(C)c(=O)c12`, for which the Papp A→B in data set [1] came out at 27 ×10⁻⁶ cm/s. In addition, the Ratio was found to be 1.3 in data set [2] and 1.6 in data set [3]. Also, the figures for the IC50 in data set [4] and in data set [5] were 122 nM and 50.8 nM, respectively.

Consider `CCCS(=O)(=O)Nc1ccc(F)c(Nc2ccc3ncn(C)c(=O)c3c2)c1F`, for which, in data set [1], the Papp A→B stood at 26 ×10⁻⁶ cm/s. For the same compound, the Ratio in data set [2] is reported as 21.3; in data set [3], 11.1. Moreover, the IC50 in data set [4] is 69.1 nM; in data set [5] it was 88 nM.

`CCCS(=O)(=O)Nc1ccc(F)c(Oc2ccc3ncn(C)c(=O)c3c2)c1F`: the Papp A→B in data set [1] came out at 29 ×10⁻⁶ cm/s.

On to `CCS(=O)(=O)Nc1ccc(F)c(Nc2ccc3ncn(C)c(=O)c3c2C)c1Cl`, for which the Papp A→B in data set [1] is 36 ×10⁻⁶ cm/s. Moreover, the Ratio in data set [2] came out at 1.3; in data set [3], 1.8. Also, the IC50 in data set [4] was found to be 169 nM; in data set [5] it was 182 nM.

As for `Cc1c(Nc2c(F)ccc(NS(=O)(=O)CC3CC3)c2Cl)ccc2ncn(C)c(=O)c12`, the Papp A→B in data set [1] was determined as 29 ×10⁻⁶ cm/s. Further, the Ratio is recorded as 1.1 in data set [2] and 1.5 in data set [3]. Also, the figures for the IC50 in data set [4] and in data set [5] were 93.6 nM and 46.1 nM, respectively.

As to `CCCS(=O)(=O)Nc1ccc(F)c(N(CC)c2ccc3ncn(C)c(=O)c3c2)c1F`, the Papp A→B in data set [1] came to 19 ×10⁻⁶ cm/s. The Ratio in data set [2] and in data set [3] was 1.5 throughout. Moreover, the IC50 in data set [4] and in data set [5] was 197 nM each time.

Turning to `COC(=O)N[C@@H](C)CNc1nccc(-c2cn(C(C)C)nc2-c2cc(Cl)cc(NS(C)(=O)=O)c2F)n1` [ENCORAFENIB], in data set [1], the Papp A→B is 11 ×10⁻⁶ cm/s. The Ratio in data set [3] is listed as 26.3.

As to `CCCS(=O)(=O)Nc1ccc(F)c(Nc2ccc3ncn(CC)c(=O)c3c2C)c1Cl`, the Papp A→B in data set [1] amounted to 30 ×10⁻⁶ cm/s. In addition, the Ratio in data set [2] and in data set [3] was 0.9 in each case. The values for the IC50 in data set [4] and in data set [5] were 27 nM and 3.61 nM, respectively.

Take `CCCS(=O)(=O)Nc1ccc(F)c(Nc2ccc3ncn(C)c(=O)c3c2C)c1Cl`: the Papp A→B in data set [1] was 28 ×10⁻⁶ cm/s. The Ratio in data set [2] is 1.2; in data set [3], 1.3. The pKa in data set [6] was 7.88. Besides, the IC50 in data set [4] was 35.5 nM; in data set [5] it was 14.5 nM.

In the case of `CCCS(=O)(=O)Nc1ccc(F)c(N(C)c2ccc3ncn(C)c(=O)c3c2)c1F`, the Papp A→B in data set [1] is 41 ×10⁻⁶ cm/s. Also, the Ratio in data set [2] is 2.6; in data set [3], 3.2. Also, the values for the IC50 in data set [4] and in data set [5] were 73.7 nM and 69.2 nM, respectively.

`CCCS(=O)(=O)Nc1ccc(F)c(Nc2ccc3ncn(C)c(=O)c3c2)c1Cl`: the Papp A→B in data set [1] stood at 39 ×10⁻⁶ cm/s. For the same compound, the Ratio in data set [2] is given as 6; in data set [3], 4.1. Moreover, the IC50 in data set [4] was 27.3 nM; in data set [5], 13.8 nM.

For the compound `CCC(C)S(=O)(=O)Nc1ccc(F)c(Nc2ccc3ncn(C)c(=O)c3c2C)c1Cl` (stereo not given), in data set [1], the Papp A→B was found to be 27 ×10⁻⁶ cm/s. Further, the results for the Ratio in data set [2] and in data set [3] were 0.8 and 1.2, respectively. Moreover, the IC50 was 113 nM in data set [4] and 77.4 nM in data set [5].

For `CCCS(=O)(=O)Nc1ccc(F)c(Sc2ccc3ncn(C)c(=O)c3c2)c1F`, the apical-to-basolateral permeability (Papp A→B) in data set [1] is 19 ×10⁻⁶ cm/s.

Take `CCCS(=O)(=O)Nc1ccc(F)c(C(=O)c2c[nH]c3ncc(-c4ccc(Cl)cc4)cc23)c1F` [VEMURAFENIB]: in data set [1], the apparent permeability from apical to basolateral (Papp A→B) was 3 ×10⁻⁶ cm/s. Also, the Ratio in data set [2] is reported as 15.2; in data set [3], 21.7.

On to `CCCS(=O)(=O)Nc1ccc(Cl)c(N(C)c2ccc3ncn(C)c(=O)c3c2)c1F`, for which, in data set [1], the Papp A→B is 37 ×10⁻⁶ cm/s. Further, the figures for the Ratio in data set [2] and in data set [3] were 3.9 and 4.1, respectively. Besides, the IC50 in data set [4] is 178 nM; in data set [5], 28.4 nM.

For `CCCS(=O)(=O)Nc1ccc(F)c(Nc2ccc3ncn(C)c(=O)c3c2OC)c1Cl`, the Papp A→B in data set [1] amounted to 22 ×10⁻⁶ cm/s.

On to `CC(C)(C)c1nc(-c2cccc(NS(=O)(=O)c3c(F)cccc3F)c2F)c(-c2ccnc(N)n2)s1` [DABRAFENIB], for which, in data set [1], the Papp A→B was 29 ×10⁻⁶ cm/s. The values for the Ratio in data set [2] and in data set [3] were 11.7 and 10.1, respectively.

`CCCS(=O)(=O)Nc1ccc(F)c(Nc2ccc3ncn(C)c(=O)c3c2F)c1Cl`: in data set [1], the Papp A→B stood at 33 ×10⁻⁶ cm/s.

Consider `CCCS(=O)(=O)Nc1ccc(F)c(Nc2ccc3ncn(C4CC4)c(=O)c3c2C)c1Cl`, for which the Papp A→B in data set [1] came to 25 ×10⁻⁶ cm/s. In addition, the Ratio in data set [2] and in data set [3] was 1.6 in each case. Further, the figures for the IC50 in data set [4] and in data set [5] were 61.5 nM and 11.7 nM, respectively.

Take `CCCS(=O)(=O)Nc1ccc(F)c(Nc2ccc3ncn(C(C)C)c(=O)c3c2C)c1Cl`: the apparent permeability from apical to basolateral (Papp A→B) in data set [1] was found to be 20 ×10⁻⁶ cm/s. Further, the Ratio came out at 1.5 in data set [2] and 1.4 in data set [3]. Besides, the results for the IC50 in data set [4] and in data set [5] were 187 nM and 20 nM, respectively.

`CCCS(=O)(=O)Nc1ccc(F)c(Nc2ccc3ncn(CC4CC4)c(=O)c3c2C)c1Cl`: the Papp A→B in data set [1] was 21 ×10⁻⁶ cm/s. Further, the results for the Ratio in data set [2] and in data set [3] were 1.6 and 1.1, respectively. For the same compound, the results for the IC50 in data set [4] and in data set [5] were 285 nM and 17.5 nM, respectively.

Consider `CCCS(=O)(=O)Nc1ccc(F)c(Nc2ccc3ncn(C)c(=O)c3c2Cl)c1Cl`, for which the apparent permeability from apical to basolateral (Papp A→B) in data set [1] was determined as 24 ×10⁻⁶ cm/s.
